SMILES strings stand for the structures. Where two headings read alike, the source gives them in different places.

The subject of data set [1] is rat liver microsomes.
Data set [2] concerns rat liver microsomes. In words: Inhibition of lipid peroxidation (LPO) initiated by tert-butoxyl radicals in rat liver microsomes, TBA test for MDA (Example 1). Particulars: for relative efficiency normalized to 1.0 for PBN: from IC50 data of Example 1; for IC50: read-out: Inhibitor Concentration of 50% Inhibition (IC50), RLM (I), LPO initiated by tert-butoxyl radicals, 37° C., one hour, pH 7.4, average of 5 experiments, interpolated, estimated or measured.

For a further data set, the system named is rat brain microsomes. In words: Inhibition of LPO in rat brain microsomes, TBA test for MDA production (Example 3). It is filed as biochemical. Particulars: for IC50: rat brain microsomes; for inhibition of LPO in these systems: conclusion in words on the data obtained. How it is done: Similar tests were performed with rat brain microsomes using the TBA test for MDA production as the result of LPO.

The test system of data set [3] is rat liver microsomes. The following applies: read-out: Inhibitor Concentration of 50% Inhibition (IC50); RLM (II); LPO initiated by NADPH/cytochrome-P450 metabolism of CCl4; average of 5 experiments; interpolated.
[4] abbreviates: value in parentheses, read-out: IC50 RBM (III).

For the molecule `Cc1cc(C(C)(C)C)c(O)c(C(C)(C)C)c1` [BHT, butylated hydroxy toulene, reference compound], the IC50 with rat liver microsomes [1] is 55 µM; with rat liver microsomes [2], 5.3 µM. Besides, the “relative efficiency normalized to 1.0 for PBN” value (“relative efficiency normalized” below) in the data set with rat liver microsomes [2] (rat liver microsomes) was 2000.
As for `CC(C)(C)c1cc(C=[N+]([O-])C(C)(C)C)cc(C(C)(C)C)c1O` [DBBNP, 2,6-di-tert-butyl-4-(N-tert-butyl) nitronyl phenol], the IC50 in the data set on rat brain microsomes (RBM (III), TBA test for MDA) was 0.7 µM; in the data set with rat brain microsomes (setting [4]), 0.7 µM; with rat liver microsomes [3] it was 53 µM; in the data set with rat liver microsomes [2], 4.3 µM. Besides, the “inhibition of LPO in these systems” value with rat brain microsomes is “very good inhibitors”. In addition, in the data set on rat liver microsomes [2] (conclusion in words, taking into account experimental precision), the “effectiveness as inhibitor of LPO compared with BHT” value is “at least as good as BHT and probably better”. Also, the “relative efficiency normalized” value in the data set with rat liver microsomes [2] (rat liver microsomes) is listed as 2466. Besides, the “better than BHT as an inhibitor of LPO” value with rat liver microsomes [2] (rat liver microsomes, versus BHT) is “about 20%”. Also, in the data set with rat liver microsomes [2] (rat liver microsomes, versus PBN), the “times more effective as an inhibitor of LPO than PBN” value is on record as “about 2000 times”.
For the molecule `Cc1cc(C=[N+]([O-])C(C)(C)CC(C)(C)C)cc(C)c1O` [DMONP, 2,6-dimethyl-4-(N-tert-octyl) nitronyl phenol], the IC50 in the data set on rat brain microsomes (RBM (III), TBA test for MDA) is 70 µM; in the data set with rat liver microsomes [3], 60 µM; with rat liver microsomes [2], 16.4 µM. Further, the “relative efficiency normalized” value in the data set with rat liver microsomes [2] (rat liver microsomes) came out at 646.
In the case of `CC(C)(C)[N+]([O-])=Cc1ccccc1` [PBN, α-phenyl t-butyl nitrone, reference compound], the IC50 with rat brain microsomes (RBM (III), TBA test for MDA) is 1000 µM; in the data set with rat liver microsomes [3] it was 17500 µM; in the data set on rat liver microsomes [2], 9800 µM. Further, in the data set on rat liver microsomes [2] (rat liver microsomes), the “relative efficiency normalized” value amounted to 1.0.
`CC(C)(C)CC(C)(C)[N+]([O-])=Cc1cc(C(C)(C)C)c(O)c(C(C)(C)C)c1` [DBONP, 2,6-di-tert-butyl-4-(N-tert-octyl) nitronyl phenol]: the IC50 with rat brain microsomes (RBM (III), TBA test for MDA) is 0.3 µM; with rat brain microsomes (setting [4]), 0.3 µM; in the data set with rat liver microsomes [3] it was 35 µM; in the data set on rat liver microsomes [2], 5.8 µM. The “inhibition of LPO in these systems” value in the data set on rat brain microsomes is given as “very good inhibitors”. In the data set with rat liver microsomes [2] (rat liver microsomes), the “relative efficiency normalized” value stood at 1828.
In the case of `Cc1c(C)c2c(c(C)c1O)CCC(C)(CCCC(C)CCCC(C)CCCC(C)C)O2` (stereo not drawn) [Tocopherol, α-tocopherol, reference compound], the “relative efficiency normalized” value with rat liver microsomes [2] (rat liver microsomes) is 354. The IC50 with rat liver microsomes [2] was 30 µM.
On to `CC(C)(C)CC(C)(C)[N+]([O-])=Cc1ccccc1` [OPN, N-tert-octyl C-phenyl nitrone], for which the IC50 with rat brain microsomes (RBM (III), TBA test for MDA) was 76 µM; in the data set on rat liver microsomes [3], 6500 µM; with rat liver microsomes [2], 462 µM. In the data set on rat liver microsomes [2] (rat liver microsomes), the “relative efficiency normalized” value stood at 24.
`Cc1cc(C=[N+]([O-])C(C)(C)C)cc(C)c1O` [DMBNP, 2,6-dimethyl-4-(N-tert-butyl) nitronyl phenol]: the IC50 in the data set with rat brain microsomes (RBM (III), TBA test for MDA) is 600 µM; in the data set with rat liver microsomes [3], 710 µM; in the data set on rat liver microsomes [2] it was 230 µM. In the data set with rat liver microsomes [2] (rat liver microsomes), the “relative efficiency normalized” value came to 46.

These data come from patent US5527828A, “Spin trap nitronyl hindered phenols” (priority 1995, dated 1996).
